Results taken from patent publication US20230414771A1, “PREPARATION AND USE OF IMMUNOSTIMULATORY CONJUGATED COMPLEXES FOR TARGETED DELIVERY AND ACTIVATION” (YAFEI SHANGHAI BIOLOGY MEDICINE SCIENCE & TECHNOLOGY CO., …, priority 2020, published 2023).
Where a SMILES comes first, the peptide text is derived from it. The star is where a group is joined. Doxorubicin(3'-N) = COc1cccc2c1C(=O)c1c(O)c3c(c(O)c1C2=O)C[C@@](O)(C(=O)CO)C[C@@H]3O[C@H]1C[C@H](N*)[C@H](O)[C@H](C)O1; Hexanoyl(6-maleimido) = O=C1C=CC(=O)N1CCCCCC(=O)*

Assays:
CD8+ T cells = assay: MTT cytotoxicity on CD8+ T cells; type: cell-based, C57BL/6 mouse; conditions: 48 hours, relative to C3
Experimental: • 1) Take the spleen of C57BL/6 mouse, place it on the culture dish with 40 uM screen (ice bath), add about 10 mL of normal saline, and gently grind with sterile syringe core. • 2) Transfer the ground cell suspension into a 50 mL centrifuge tube, add about 5 mL of normal saline to rinse the petri dish, and also transfer it into the 50 mL centrifuge tube, and combine the suspensions. • 3) Centrifuge the cell suspension at 1000 r/min for 10 min, discard the supernatant, and add an appropriate volume of normal saline to resuspend. Then add 3 times volume of ammonium chloride erythrocyte lysate, pipetting evenly. After lysing on ice for about 10 min, add 10 mL of normal saline to stop the lysing, and centrifuge at 1000 r/min for 5 min. • 4) After centrifugation, discard the supernatant, add 10 mL of physiological saline, pipette evenly, centrifuge at 1000 r/min for 5 min, and repeat the above operation once. Cells were then resuspended in 10% RMPI 1640 medium for subsequent culture or in 0.5% BSA for subsequent T cell sorting. […]
• A. Washing of CD3/CD28 magnetic beads: a. […] The cells were transferred to another tube to remove the beads as completely as possible and cultured in medium supplemented with […] (which could be increased according to the actual situation) and their status, proliferation and viability were monitored. […]

[1] = system: Human live cancer Hep G2 tumor tissue homogenate; assay: Activation in Hep G2 tumor tissue homogenate; type: biochemical; conditions: Hep G2 homogenate pH 6.0, 37° C., 1 mg/ml
Experimental: (§1) In the experiments of the present disclosure, 1 mg/ml of the sample compound was added to 100 μg of acidified tumor tissue homogenate (pH 6.0) at 37° C. The enzyme in the tumor tissue homogenate can cause the release of doxorubicin, and the reduction of compound and the increase of doxorubicin could be detected by HPLC to compare the activation efficiency of the drug in the tumor tissue.

[2] = system: Human fibrosarcoma HT-1080 tumor tissue homogenate; assay: Activation in HT-1080 tumor tissue homogenate; type: biochemical; conditions: HT-1080 homogenate pH 6.0, 37° C., 1 mg/ml
Experimental: as §1

[3] = system: acidified human breast cancer (MDA-MB435) tumor tissue homogenate; assay: Activation efficiency of S-C-A linkers in tumor tissue homogenate, HPLC; type: biochemical; conditions: Table 2-1; C is AAN; 1 mg/ml, homogenate pH 6.0, 37° C.
Experimental: When C is AAN, the activation of the different S-C-A linkers and the control linker is evaluated in an activation assay. They were dissolved and diluted tenfold using S-C-A conjugates to a concentration of 0.1 mM/ml. The sample compounds were added at a concentration of 1 mg/ml to 100 μg of acidified human breast cancer (MDA—MB435) tumor tissue homogenate (pH 6.0) at 37° C. The enzyme in the tumor tissue homogenate was released and detected by HPLC to compare the efficiency of activation of the linker by the tumor tissue.
The effect of the D-type tripeptide on the activation efficiency was examined in comparison to the native peptide sequence linker cleaved by Legumain, S1 in MI-S is —CH2CH2—CONH—, S2: 2 peg.

Row | SMILES | cytotoxicity against CD8+ T cells (FIG. 5) (CD8+ T cells) | Compound activation ratios (%) [1] [%] | Compound activation ratios (%) [2] [%] | Activation efficiency (%) [3] [%]
1 | COc1cccc2c1C(=O)c1c(O)c3c(c(O)c1C2=O)C[C@@](O)(C(=O)CO)C[C@@H]3O[C@H]1C[C@H](NC(=O)[C@H](CC(C)C)NC(=O)[C@H](CC(N)=O)NC(=O)[C@H](C)NC(=O)[C@H](C)NC(=O)CCOCCOCCNC(=O)CCN2C(=O)C=CC2=O)[C@H](O)[C@H](C)O1 [QHL-087-DOX] | less cytotoxicity against CD8+ T cells |  |  | 
2 | COc1cccc2c1C(=O)c1c(O)c3c(c(O)c1C2=O)C[C@@](O)(C(=O)CO)C[C@@H]3O[C@H]1C[C@H](NC(=O)[C@H](CC(C)C)NC(=O)[C@H](CC(N)=O)NC(=O)[C@H](C)NC(=O)[C@H](C)NC(=O)CCCCCN2C(=O)C=CC2=O)[C@H](O)[C@H](C)O1 [EMC-AANL-DOX] ({Hexanoyl(6-maleimido)}-AANL-{Doxorubicin(3'-N)}) |  | 75.3 | 44.7 | 56.4
